From publication PMC4457528, “Identification of Novel Small Molecule Inhibitors of Oncogenic RET Kinase” (PLoS ONE, 2015) come the findings set out here.

Holding throughout (assay): KinomeScan kinase panel, single concentration 10 µM
Common to all, as to type: binding

In assay [1] the target is T1, KinomeScan kinase panel (Homo sapiens, UniProt P48736).
T1 construct: purchased DiscoveRx (KinomeScan)
Particulars: PIK3CG, 10 µM; read-out: score (%).

For assay [2], the target named is T2, KinomeScan kinase panel (Homo sapiens, UniProt Q9UKE5).
T2 construct: purchased DiscoveRx (KinomeScan)
T2 sequence (Q9UKE5 whole entry): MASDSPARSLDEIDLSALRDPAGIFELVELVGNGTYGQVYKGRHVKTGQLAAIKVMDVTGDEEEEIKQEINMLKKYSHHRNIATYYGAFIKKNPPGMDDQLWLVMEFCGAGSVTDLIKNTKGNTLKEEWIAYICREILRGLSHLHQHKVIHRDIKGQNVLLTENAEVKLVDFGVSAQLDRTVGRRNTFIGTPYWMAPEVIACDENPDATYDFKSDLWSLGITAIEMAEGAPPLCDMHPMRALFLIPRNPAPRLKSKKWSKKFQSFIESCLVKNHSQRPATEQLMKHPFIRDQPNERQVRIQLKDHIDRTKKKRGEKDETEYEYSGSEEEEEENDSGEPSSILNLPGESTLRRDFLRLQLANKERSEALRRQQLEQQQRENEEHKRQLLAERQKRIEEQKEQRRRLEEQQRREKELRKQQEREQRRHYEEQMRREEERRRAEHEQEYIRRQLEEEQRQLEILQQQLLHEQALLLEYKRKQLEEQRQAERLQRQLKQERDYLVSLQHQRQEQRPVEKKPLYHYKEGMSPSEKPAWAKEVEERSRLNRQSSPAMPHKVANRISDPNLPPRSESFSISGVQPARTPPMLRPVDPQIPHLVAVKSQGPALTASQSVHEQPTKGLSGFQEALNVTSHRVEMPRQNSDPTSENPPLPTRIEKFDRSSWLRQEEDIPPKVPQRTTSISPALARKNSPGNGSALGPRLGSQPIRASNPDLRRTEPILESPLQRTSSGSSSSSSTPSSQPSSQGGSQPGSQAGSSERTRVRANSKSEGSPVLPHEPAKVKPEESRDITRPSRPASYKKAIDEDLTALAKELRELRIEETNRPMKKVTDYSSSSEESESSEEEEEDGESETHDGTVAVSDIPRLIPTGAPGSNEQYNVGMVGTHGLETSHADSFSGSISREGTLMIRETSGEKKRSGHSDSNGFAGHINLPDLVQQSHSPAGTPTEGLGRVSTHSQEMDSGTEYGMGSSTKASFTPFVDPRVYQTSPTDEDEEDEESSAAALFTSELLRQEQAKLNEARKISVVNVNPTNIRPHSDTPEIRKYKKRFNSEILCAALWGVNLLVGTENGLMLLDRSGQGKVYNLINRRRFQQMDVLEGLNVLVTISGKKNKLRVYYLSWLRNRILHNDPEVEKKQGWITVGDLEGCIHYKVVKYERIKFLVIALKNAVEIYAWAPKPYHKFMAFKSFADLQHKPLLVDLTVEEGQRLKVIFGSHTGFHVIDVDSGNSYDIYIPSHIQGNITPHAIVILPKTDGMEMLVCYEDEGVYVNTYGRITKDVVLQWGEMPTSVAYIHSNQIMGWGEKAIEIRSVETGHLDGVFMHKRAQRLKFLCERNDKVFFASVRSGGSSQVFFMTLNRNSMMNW
Particulars: 10 µM, read-out: score (%).

Assay [3] deals with T3, KinomeScan kinase panel (Homo sapiens, UniProt P04626).
T3 construct: purchased DiscoveRx (KinomeScan)
Particulars: ERBB2, 10 µM; read-out: score (%).

Assay [4] has as its target T4, KinomeScan kinase panel (Homo sapiens, UniProt Q13177).
T4 construct: purchased DiscoveRx (KinomeScan)
Particulars: PAK2, 10 µM; read-out: score (%).

For assay [5], the target named is T5, KinomeScan kinase panel (Homo sapiens, UniProt P14616).
T5 construct: purchased DiscoveRx (KinomeScan)
Conditions: INSRR, 10 µM; read-out: score (%).

For assay [6], the target named is T6, KinomeScan kinase panel (Homo sapiens, UniProt Q92772).
T6 construct: purchased DiscoveRx (KinomeScan)
T6 sequence (Q92772 1-493): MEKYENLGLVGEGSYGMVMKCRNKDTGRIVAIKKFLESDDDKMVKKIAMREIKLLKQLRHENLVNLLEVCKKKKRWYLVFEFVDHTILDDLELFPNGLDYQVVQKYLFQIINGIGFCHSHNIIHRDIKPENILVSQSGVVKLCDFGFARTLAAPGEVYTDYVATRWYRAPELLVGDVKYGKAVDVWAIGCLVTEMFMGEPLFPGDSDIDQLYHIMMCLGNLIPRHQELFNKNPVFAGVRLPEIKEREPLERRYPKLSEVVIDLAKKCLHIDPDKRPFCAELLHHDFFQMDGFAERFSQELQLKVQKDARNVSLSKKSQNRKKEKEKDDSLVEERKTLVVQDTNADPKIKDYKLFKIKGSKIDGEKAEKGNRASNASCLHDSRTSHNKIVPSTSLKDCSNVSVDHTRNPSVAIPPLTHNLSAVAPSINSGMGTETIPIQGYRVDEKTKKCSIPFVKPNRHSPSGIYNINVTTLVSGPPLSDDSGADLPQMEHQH
Particulars: CDKL2, 10 µM; read-out: score (%).

Assay [7] addresses T7, KinomeScan kinase panel (Homo sapiens, UniProt P36897).
T7 construct: purchased DiscoveRx (KinomeScan)
T7 sequence (P36897 34-503): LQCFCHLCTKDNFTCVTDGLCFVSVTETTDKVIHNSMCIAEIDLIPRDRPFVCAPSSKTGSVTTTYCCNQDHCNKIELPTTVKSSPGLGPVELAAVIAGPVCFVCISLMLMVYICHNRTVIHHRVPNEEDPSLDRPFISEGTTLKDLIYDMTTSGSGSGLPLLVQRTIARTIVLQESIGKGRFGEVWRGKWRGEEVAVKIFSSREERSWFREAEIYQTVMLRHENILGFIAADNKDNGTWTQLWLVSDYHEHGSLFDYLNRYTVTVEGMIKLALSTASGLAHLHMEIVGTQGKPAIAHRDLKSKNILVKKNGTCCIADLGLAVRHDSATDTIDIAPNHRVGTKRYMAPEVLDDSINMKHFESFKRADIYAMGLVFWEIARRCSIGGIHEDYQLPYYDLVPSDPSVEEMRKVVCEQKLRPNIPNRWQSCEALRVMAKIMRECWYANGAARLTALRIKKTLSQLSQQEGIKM
Conditions: read-out: score (%).

Assay [8] addresses T8, KinomeScan kinase panel (Homo sapiens, UniProt Q15831).
T8 construct: purchased DiscoveRx (KinomeScan)
T8 sequence (Q15831 1-433): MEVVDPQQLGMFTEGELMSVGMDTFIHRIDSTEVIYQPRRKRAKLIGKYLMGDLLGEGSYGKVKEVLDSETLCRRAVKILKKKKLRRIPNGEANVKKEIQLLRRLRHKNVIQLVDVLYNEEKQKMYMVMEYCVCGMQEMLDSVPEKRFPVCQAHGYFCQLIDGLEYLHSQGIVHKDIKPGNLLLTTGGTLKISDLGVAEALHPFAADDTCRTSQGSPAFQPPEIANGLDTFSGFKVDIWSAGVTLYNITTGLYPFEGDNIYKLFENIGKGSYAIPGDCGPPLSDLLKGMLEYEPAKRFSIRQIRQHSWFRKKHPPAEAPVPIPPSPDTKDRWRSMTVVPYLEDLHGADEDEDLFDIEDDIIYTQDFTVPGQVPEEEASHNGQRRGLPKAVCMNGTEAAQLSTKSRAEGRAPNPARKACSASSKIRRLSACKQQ
Particulars: LKB1, 10 µM; read-out: score (%).

Assay [9] concerns the target T9, KinomeScan kinase panel (Homo sapiens, UniProt Q9Y5S2).
T9 construct: purchased DiscoveRx (KinomeScan)
Conditions: MRCKB, 10 µM; read-out: score (%).

Assay [10] concerns the target T10, KinomeScan kinase panel (Homo sapiens, UniProt Q05397).
T10 construct: purchased DiscoveRx (KinomeScan)
Conditions: read-out: score (%).

Assay [11] addresses T11, KinomeScan kinase panel (Homo sapiens, UniProt P00519, Y253F).
T11 construct: purchased DiscoveRx (KinomeScan)
Conditions: 10 µM, read-out: score (%).

Assay [12] addresses T12, KinomeScan kinase panel (Homo sapiens, UniProt Q86V86).
T12 construct: purchased DiscoveRx (KinomeScan)
Particulars: PIM3, 10 µM; read-out: score (%).

Assay [13] addresses T13, KinomeScan kinase panel (Homo sapiens, UniProt Q16539).
T13 construct: purchased DiscoveRx (KinomeScan)
Conditions: p38-alpha, 10 µM.

In assay [14] the target is T14, KinomeScan kinase panel (Homo sapiens, UniProt Q07002).
T14 construct: purchased DiscoveRx (KinomeScan)
T14 sequence (Q07002 whole entry): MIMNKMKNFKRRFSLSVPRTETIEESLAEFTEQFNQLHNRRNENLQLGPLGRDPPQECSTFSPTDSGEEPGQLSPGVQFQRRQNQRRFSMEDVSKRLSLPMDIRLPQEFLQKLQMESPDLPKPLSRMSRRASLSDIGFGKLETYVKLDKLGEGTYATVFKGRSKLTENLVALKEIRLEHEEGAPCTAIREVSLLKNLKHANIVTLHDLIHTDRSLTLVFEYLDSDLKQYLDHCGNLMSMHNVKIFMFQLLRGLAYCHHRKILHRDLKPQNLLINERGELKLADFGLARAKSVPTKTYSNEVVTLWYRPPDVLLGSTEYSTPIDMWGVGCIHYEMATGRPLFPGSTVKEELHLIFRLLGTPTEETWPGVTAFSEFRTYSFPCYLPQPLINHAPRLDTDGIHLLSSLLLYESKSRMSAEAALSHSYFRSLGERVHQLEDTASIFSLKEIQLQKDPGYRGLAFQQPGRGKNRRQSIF
Particulars: PCTK3, 10 µM; read-out: score (%).

Assay [15] addresses T15, KinomeScan kinase panel (Homo sapiens, UniProt P57059).
T15 construct: purchased DiscoveRx (KinomeScan)
Particulars: 10 µM.

The structures appear in SMILES notation. Like-named read-outs stand apart in the source and are kept apart here.

T4 sequence (Q13177 whole entry): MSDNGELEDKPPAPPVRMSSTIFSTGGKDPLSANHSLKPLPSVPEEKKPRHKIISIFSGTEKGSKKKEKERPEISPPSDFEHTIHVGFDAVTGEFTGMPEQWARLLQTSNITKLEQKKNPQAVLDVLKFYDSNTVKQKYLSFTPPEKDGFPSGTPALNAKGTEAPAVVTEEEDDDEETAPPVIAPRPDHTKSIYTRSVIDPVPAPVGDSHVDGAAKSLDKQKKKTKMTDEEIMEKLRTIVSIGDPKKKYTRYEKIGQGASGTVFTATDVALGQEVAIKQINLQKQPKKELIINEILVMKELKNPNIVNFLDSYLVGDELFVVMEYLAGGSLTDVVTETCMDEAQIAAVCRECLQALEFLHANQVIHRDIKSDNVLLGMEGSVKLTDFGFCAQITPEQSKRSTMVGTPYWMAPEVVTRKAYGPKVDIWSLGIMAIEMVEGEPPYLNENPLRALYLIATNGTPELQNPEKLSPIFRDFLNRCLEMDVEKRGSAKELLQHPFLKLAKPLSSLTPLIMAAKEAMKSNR
T13 sequence (Q16539 whole entry): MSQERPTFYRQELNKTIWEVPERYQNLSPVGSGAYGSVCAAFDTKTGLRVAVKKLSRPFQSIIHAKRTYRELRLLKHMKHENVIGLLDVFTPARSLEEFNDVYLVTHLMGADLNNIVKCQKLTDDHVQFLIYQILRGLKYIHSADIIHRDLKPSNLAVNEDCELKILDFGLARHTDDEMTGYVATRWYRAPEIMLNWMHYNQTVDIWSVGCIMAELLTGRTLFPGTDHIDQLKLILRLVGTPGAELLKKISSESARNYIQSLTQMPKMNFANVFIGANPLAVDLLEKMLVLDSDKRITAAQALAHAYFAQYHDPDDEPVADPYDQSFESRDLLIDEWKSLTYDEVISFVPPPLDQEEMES
T9 sequence (Q9Y5S2 whole entry): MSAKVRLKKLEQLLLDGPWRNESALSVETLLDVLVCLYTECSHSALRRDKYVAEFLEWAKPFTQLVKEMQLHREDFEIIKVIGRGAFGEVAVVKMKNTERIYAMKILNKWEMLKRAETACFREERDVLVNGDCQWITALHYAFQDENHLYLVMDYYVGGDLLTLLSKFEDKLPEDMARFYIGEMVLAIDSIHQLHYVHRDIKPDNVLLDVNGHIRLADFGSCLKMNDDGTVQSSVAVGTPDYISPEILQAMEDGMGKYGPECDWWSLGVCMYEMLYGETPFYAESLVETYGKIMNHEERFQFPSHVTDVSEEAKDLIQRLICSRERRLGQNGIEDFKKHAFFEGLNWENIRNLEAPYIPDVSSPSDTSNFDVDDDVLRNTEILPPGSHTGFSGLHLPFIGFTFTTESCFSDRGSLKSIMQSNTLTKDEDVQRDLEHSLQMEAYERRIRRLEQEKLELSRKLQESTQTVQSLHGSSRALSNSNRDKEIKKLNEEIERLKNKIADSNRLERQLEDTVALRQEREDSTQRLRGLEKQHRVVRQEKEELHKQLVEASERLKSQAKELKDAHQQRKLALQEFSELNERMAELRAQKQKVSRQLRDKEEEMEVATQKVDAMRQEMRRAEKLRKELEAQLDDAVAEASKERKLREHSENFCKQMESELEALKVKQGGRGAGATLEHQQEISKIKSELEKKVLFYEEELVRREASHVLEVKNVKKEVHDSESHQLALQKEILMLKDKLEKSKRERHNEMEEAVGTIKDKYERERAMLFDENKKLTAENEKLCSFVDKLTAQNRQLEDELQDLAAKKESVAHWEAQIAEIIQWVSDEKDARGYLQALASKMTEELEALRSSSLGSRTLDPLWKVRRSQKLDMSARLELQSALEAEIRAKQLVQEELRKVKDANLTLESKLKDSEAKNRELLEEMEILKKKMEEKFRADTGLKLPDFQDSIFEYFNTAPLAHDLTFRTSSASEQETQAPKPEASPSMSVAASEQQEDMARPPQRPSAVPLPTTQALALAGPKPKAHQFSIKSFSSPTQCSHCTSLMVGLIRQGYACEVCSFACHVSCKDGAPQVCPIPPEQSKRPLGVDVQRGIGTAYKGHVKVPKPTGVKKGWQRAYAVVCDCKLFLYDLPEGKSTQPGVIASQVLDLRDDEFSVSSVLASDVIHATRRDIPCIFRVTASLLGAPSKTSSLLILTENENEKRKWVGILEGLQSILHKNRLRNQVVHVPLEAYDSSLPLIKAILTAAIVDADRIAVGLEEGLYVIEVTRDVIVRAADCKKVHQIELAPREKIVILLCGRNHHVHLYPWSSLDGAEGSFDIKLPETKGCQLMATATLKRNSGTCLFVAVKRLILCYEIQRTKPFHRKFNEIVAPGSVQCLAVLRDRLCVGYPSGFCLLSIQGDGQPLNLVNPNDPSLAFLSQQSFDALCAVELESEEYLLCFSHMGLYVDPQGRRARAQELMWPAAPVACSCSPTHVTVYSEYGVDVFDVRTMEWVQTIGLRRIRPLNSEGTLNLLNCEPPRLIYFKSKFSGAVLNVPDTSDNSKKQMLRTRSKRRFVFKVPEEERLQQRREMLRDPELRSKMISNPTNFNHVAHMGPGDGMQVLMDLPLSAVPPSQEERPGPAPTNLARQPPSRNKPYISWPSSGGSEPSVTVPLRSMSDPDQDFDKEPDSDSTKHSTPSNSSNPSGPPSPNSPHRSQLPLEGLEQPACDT

With `CCN1CCN(Cc2ccc(NC(=O)c3ccc(C)c(NC(=O)c4cncc(-c5cccs5)c4)c3)cc2C(F)(F)F)CC1` [ALW-II-41-27], the remaining binding at 10 µM at KinomeScan kinase panel [1] was over 30%; on KinomeScan kinase panel [2] (kinase TNIK) it was 11%; at KinomeScan kinase panel [3], 11%; at KinomeScan kinase panel [4], over 30%; at KinomeScan kinase panel [5], 8.8%; on KinomeScan kinase panel [6], 9.1%. The remaining binding at 10 µM is over 30% at KinomeScan kinase panel [7] (kinase TGFBR1, 10 µM); over 30% on KinomeScan kinase panel [8]; over 30% at KinomeScan kinase panel [9]; over 30% at KinomeScan kinase panel [10] (FAK, 10 µM); 0.2% at KinomeScan kinase panel [11] (ABL1(Y253F)); over 30% at KinomeScan kinase panel [12]. For the same compound, the remaining binding at 10 µM on KinomeScan kinase panel [14] is over 30%. In addition, the “score (%)” value on KinomeScan kinase panel [13] was 0%; on KinomeScan kinase panel [15] (kinase SIK), 0.2%.

Consider `CCN1CCN(Cc2ccc(NC(=O)c3ccc(C)c(/C=C/c4cnc5[nH]ccc5c4Cl)c3)cc2C(F)(F)F)CC1` [HG-6-63-01, (E)-3-(2-(4-chloro-1H-pyrrolo[2,3-b]pyridin-5-yl)vinyl)-N-(4-((4-ethylpiperazin-1-yl)methyl)-3-(trifluoromethyl)phenyl)-4-methylbenzamide], for which the remaining binding at 10 µM at KinomeScan kinase panel [1] was over 30%; on KinomeScan kinase panel [2] (TNIK), 13%; on KinomeScan kinase panel [3] it was 21%; on KinomeScan kinase panel [4], over 30%; at KinomeScan kinase panel [5], over 30%; at KinomeScan kinase panel [6], 0.5%. Also, the remaining binding at 10 µM is over 30% on KinomeScan kinase panel [7] (TGFBR1, 10 µM); 29% at KinomeScan kinase panel [8]; 30% at KinomeScan kinase panel [9]; over 30% at KinomeScan kinase panel [10] (PTK2, 10 µM); 0.1% on KinomeScan kinase panel [11] (ABL1(Y253F)); over 30% on KinomeScan kinase panel [12]. For the same compound, the remaining binding at 10 µM on KinomeScan kinase panel [14] was over 30%. Also, the “score (%)” value is given as 0.15% at KinomeScan kinase panel [13] and 0.3% at KinomeScan kinase panel [15] (SNF1LK).

Regarding `CCN1CCN(Cc2ccc(NC(=O)c3ccc(C)c(C#Cc4cccnc4)c3)cc2C(F)(F)F)CC1` [XMD15-44], the remaining binding at 10 µM on KinomeScan kinase panel [1] is 100%; on KinomeScan kinase panel [2] (kinase TNIK) it was 1.8%; on KinomeScan kinase panel [3], 0.5%; on KinomeScan kinase panel [4], 84%; on KinomeScan kinase panel [5], over 30%; on KinomeScan kinase panel [6], 1.4%. Further, the remaining binding at 10 µM on KinomeScan kinase panel [7] (kinase TGFBR1, 10 µM) was 100%; on KinomeScan kinase panel [8], over 30%; on KinomeScan kinase panel [9], over 30%; at KinomeScan kinase panel [10] (FAK, 10 µM), over 30%; at KinomeScan kinase panel [11] (ABL1(Y253F)-phosphorylated), 0.15%; on KinomeScan kinase panel [12], 100%. Moreover, the remaining binding at 10 µM at KinomeScan kinase panel [14] worked out at 6.2%. Besides, the entries for the “score (%)” value at KinomeScan kinase panel [13] and at KinomeScan kinase panel [15] (kinase SIK) were 0% and 0.45%, respectively.
